Source: the supplement of paper PMC10331698
± gives the standard deviation of the averaged measurements.

How the values were obtained:
Assay in all cases: level (log10 ratio to DMSO vehicle control); higher = higher biomarker level / cell amount than vehicle control
[1] = compound: NS(=O)(=O)C(F)(F)C(F)(F)C(F)(F)C(F)(F)C(F)(F)C(F)(F)F [Perfluorohexanesulfonamide]; conditions: in DMSO
Method: (§1)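 BioMAP Diversity Plus panel of 12 human primary cell co-culture systems (3C, 4H, LPS, SAg, BT, BF4T, BE3C, CASM3C, HDF3CGF, KF3CT, MyoF, Mphg). Compounds were added 1 h before stimulation and left for 24 h (MyoF 48 h; BT 72 h for soluble read-outs or 6 d for IgG). Biomarkers were read by ELISA, cytotoxicity by SRB, PBMC viability and proliferation by Alamar Blue. Each well value was divided by the mean of 8 DMSO control wells on the same plate and log10 transformed; duplicate blinded samples were tested at 4 concentrations.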

Nonafluoropentanamide = compound: NC(=O)C(F)(F)C(F)(F)C(F)(F)C(F)(F)F [Nonafluoropentanamide]; conditions: in DMSO
Method: as §1

[2] = compound: COC(=O)C(F)(F)C(F)(F)OC(F)(C(F)(F)F)C(F)(F)OC(F)=C(F)F [Methyl perfluoro(3-(1-ethenyloxypropan-2-yloxy)propanoate)]; conditions: in DMSO
Method: as §1

[3] = compound: C=CC(=O)OCC(F)(F)C(F)(F)C(F)(F)COC(=O)C=C [1H,1H,5H,5H-Perfluoro-1,5-pentanediol diacrylate]; conditions: 6700 nM; in DMSO
Method: as §1

[4] = compound: NC(=O)C(F)(F)C(F)(F)C(F)(F)C(F)F; conditions: in DMSO
Method: as §1

[5] = compound: FC(F)(F)C(F)(F)C(F)(F)C(F)(F)C(F)(F)C(F)(F)C(F)(F)I [1-Iodopentadecafluoroheptane]; conditions: in DMSO
Method: as §1

[6] = compound: FC(F)(F)C(F)(F)C(F)(F)CC1CO1 [1H,1H-Heptafluorobutyl epoxide]; conditions: in DMSO
Method: as §1

[7] = compound: FC(F)(F)C(F)(F)CNCC(F)(F)C(F)(F)F [Bis(1H,1H-perfluoropropyl)amine]; conditions: in DMSO
Method: as §1

[8] = compound: O=C(O)C=CC(F)(C(F)(F)F)C(F)(F)F [3-(Perfluoroisopropyl)-2-propenoic acid]; conditions: in DMSO
Method: as §1

[9] = compound: O=S(=O)(Cl)C(F)(F)C(F)(F)C(F)(F)C(F)(F)C(F)(F)C(F)(F)C(F)(F)C(F)(F)F [Perfluoro-1-octanesulfonyl chloride]; conditions: in DMSO
Method: as §1

[10] = compound: FC(F)(F)C(F)(F)C(F)(F)C(F)(F)C(F)(F)C(F)(F)CC1CO1 [3-(Perfluorohexyl)-1,2-epoxypropane]; conditions: in DMSO
Method: as §1

Octafluoroadipamide = compound: NC(=O)C(F)(F)C(F)(F)C(F)(F)C(F)(F)C(N)=O [Octafluoroadipamide]; conditions: in DMSO
Method: as §1

[11] = compound: O=S(=O)(O)CCC(F)(F)C(F)(F)C(F)(F)C(F)(F)C(F)(F)C(F)(F)F [6:2 Fluorotelomer sulfonic acid]; conditions: in DMSO
Method: as §1

[12] = compound: C=C(C)C(=O)OCCC(F)(F)C(F)(F)C(F)(F)C(F)(F)C(F)(F)C(F)(F)F [6:2 Fluorotelomer methacrylate]; conditions: in DMSO
Method: as §1

[13] = compound: O=S(=O)(O)C(F)(F)C(F)(F)C(F)(F)C(F)(F)C(F)(F)C(F)(F)C(F)(F)C(F)(F)C(F)(F)C(F)(F)F [Sodium perfluorodecanesulfonate]; conditions: in DMSO
Method: as §1

[14] = compound: O=C(O)C(F)(F)C(F)(F)C(F)(F)C(F)(F)C(F)(F)C(F)(F)C(F)(F)C(F)(F)C(F)(F)C(F)F [11-H-Perfluoroundecanoic acid]; conditions: in DMSO
Method: as §1

[15] = compound: O=S(=O)(F)C(F)(F)C(F)(F)C(F)(F)C(F)(F)C(F)(F)C(F)(F)C(F)(F)C(F)(F)F [Perfluorooctanesulfonyl fluoride]; conditions: in DMSO
Method: as §1

Hexafluoroamylene glycol = compound: OCC(F)(F)C(F)(F)C(F)(F)CO [Hexafluoroamylene glycol]; conditions: in DMSO
Method: as §1

Heptafluorobutyl iodide = compound: FC(F)(F)C(F)(F)C(F)(F)CI [Heptafluorobutyl iodide]; conditions: in DMSO
Method: as §1

KF3CT:uPA
level (log10) ([1]; 6700 nM): -0.006 ± 0.023 | level (log10) ([1]; 20000 nM): -0.0215 ± 0.019 | level (log10) ([1]; 60000 nM): 0.0025 ± 0.022 | level (log10) (Nonafluoropentanamide; 6700 nM): 0.0205 ± 0.011 | level (log10) (Nonafluoropentanamide; 20000 nM): 0.019 ± 0.0042 | level (log10) (Nonafluoropentanamide; 60000 nM): 0.011 ± 0.013 | level (log10) ([2]; 6700 nM): 0.014 ± 0.021 | level (log10) ([2]; 20000 nM): 0.0325 ± 0.019 | level (log10) [3]: -0.0035 ± 0.013 | level (log10) ([4]; 6700 nM): 0.008 ± 0.025 | level (log10) ([4]; 20000 nM): -0.0125 ± 0.028 | level (log10) ([4]; 60000 nM): -0.008 ± 0.021 | level (log10) ([5]; 6700 nM): -0.014 ± 0.013 | level (log10) ([5]; 20000 nM): 0.0105 ± 0.044 | level (log10) ([6]; 6700 nM): -0.0085 ± 0.047 | level (log10) ([6]; 20000 nM): 0.017 ± 0.067 | level (log10) ([6]; 60000 nM): -0.019 ± 0.033 | level (log10) ([7]; 6700 nM): 0.001 ± 0.013 | level (log10) ([7]; 20000 nM): 0.0085 ± 0.0092 | level (log10) ([7]; 60000 nM): 0.012 ± 0.013 | level (log10) ([8]; 6700 nM): 0.0095 ± 0.0064 | level (log10) ([8]; 20000 nM): 0.0045 ± 0.0078 | level (log10) ([8]; 60000 nM): 0.004 ± 0.02 | level (log10) ([9]; 6700 nM): 0.016 ± 0.017 | level (log10) ([9]; 20000 nM): 0.0145 ± 0.025 | level (log10) ([9]; 60000 nM): 0.0055 ± 0.00071 | level (log10) ([10]; 6700 nM): 0.006 ± 0.011 | level (log10) ([10]; 20000 nM): 0.001 ± 0.011 | level (log10) ([10]; 60000 nM): -0.0015 ± 0.005 | level (log10) (Octafluoroadipamide; 6700 nM): -0.0015 ± 0.018 | level (log10) (Octafluoroadipamide; 20000 nM): 0.0005 ± 0.0035 | level (log10) (Octafluoroadipamide; 60000 nM): 0.0145 ± 0.018 | level (log10) ([11]; 6700 nM): 0.0015 ± 0.005 | level (log10) ([11]; 20000 nM): -0.0115 ± 0.019 | level (log10) ([11]; 60000 nM): 0.008 ± 0.03 | level (log10) ([12]; 6700 nM): -0.016 ± 0.013 | level (log10) ([12]; 20000 nM): -0.011 ± 0.023 | level (log10) ([12]; 60000 nM): -0.0015 ± 0.0078 | level (log10) ([13]; 1500 nM): -0.0325 ± 0.016 | level (log10) ([13]; 4400 nM): 0.0025 ± 0.018 | level (log10) ([13]; 13000 nM): -0.001 ± 0.037 | level (log10) ([13]; 40000 nM): 0.0035 ± 0.0021 | level (log10) ([14]; 6700 nM): -0.003 | level (log10) ([14]; 20000 nM): 0.0055 ± 0.0092 | level (log10) ([15]; 6700 nM): 0.006 ± 0.011 | level (log10) ([15]; 20000 nM): 0.008 ± 0.016 | level (log10) ([15]; 60000 nM): 0.011 ± 0.028 | level (log10) (Hexafluoroamylene glycol; 6700 nM): 0.004 ± 0.0057 | level (log10) (Hexafluoroamylene glycol; 20000 nM): 0.006 ± 0.011 | level (log10) (Hexafluoroamylene glycol; 60000 nM): -0.0065 ± 0.025 | level (log10) (Heptafluorobutyl iodide; 6700 nM): 0.003 ± 0.0014 | level (log10) (Heptafluorobutyl iodide; 20000 nM): -0.0155 ± 0.011 | level (log10) (Heptafluorobutyl iodide; 60000 nM): -0.014 ± 0.0028
